According to ChEMBL document CHEMBL6092168, “Identification of novel indolinone derivatives as CTSC inhibitors to treat inflammatory bowel disease by modulating inflammatory factors” (Eur J Med Chem, 2024):
pIC50: −log10 of the molar value. Activity calls are given as the source filed them. No cut-off for these calls is given here.

Key:
[1] = target: T1, Cathepsin G (Homo sapiens) (UniProt P08311); experiment: Inhibition of Cathepsin G in human U-937 cells using N-Suc-Ala-Ala-Pro-Phe-pNA as substrate at 10 uM incubated for 5 days by […] based microplate reader analysis relative to control; format: cell-based; conditions: time 5.0 day
T1 sequence (whole entry): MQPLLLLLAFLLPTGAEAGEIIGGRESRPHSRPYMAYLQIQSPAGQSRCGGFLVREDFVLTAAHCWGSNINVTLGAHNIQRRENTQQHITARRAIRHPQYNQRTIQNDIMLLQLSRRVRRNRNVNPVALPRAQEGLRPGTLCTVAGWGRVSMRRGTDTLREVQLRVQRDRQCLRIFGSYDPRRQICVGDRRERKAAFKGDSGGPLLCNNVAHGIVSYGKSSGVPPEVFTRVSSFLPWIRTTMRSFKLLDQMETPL

[2] = target: T2, Neutrophil elastase (Homo sapiens) (UniProt P08246); experiment: Inhibition of neutrophil elastase in human U-937 cells using N-MeSuc-Ala-Pro-Val-pNA as substrate at 10 uM incubated for 5 days by […] based microplate reader analysis relative to control; format: cell-based; conditions: time 5.0 day
T2 sequence (whole entry): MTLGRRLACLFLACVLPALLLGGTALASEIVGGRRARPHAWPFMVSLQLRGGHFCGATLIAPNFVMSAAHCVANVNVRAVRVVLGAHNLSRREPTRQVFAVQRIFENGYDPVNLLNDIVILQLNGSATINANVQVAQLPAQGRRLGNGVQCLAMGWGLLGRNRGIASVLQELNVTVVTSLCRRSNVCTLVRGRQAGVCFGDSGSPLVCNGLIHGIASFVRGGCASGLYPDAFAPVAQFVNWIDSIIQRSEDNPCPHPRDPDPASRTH

[3] = target: T3, Myeloblastin (Homo sapiens) (UniProt P24158); experiment: Inhibition of proteinase 3 in human U-937 cells using aminobenzoyl-Val-Ala-Asp-Cys-Ala-Asp-Gln-ethylenediamine 2,4-dinitrophenyl as substrate at 10 uM incubated for 5 days by fluorescence based microplate reader analysis relative to control; format: cell-based; conditions: time 5.0 day
T3 sequence (whole entry): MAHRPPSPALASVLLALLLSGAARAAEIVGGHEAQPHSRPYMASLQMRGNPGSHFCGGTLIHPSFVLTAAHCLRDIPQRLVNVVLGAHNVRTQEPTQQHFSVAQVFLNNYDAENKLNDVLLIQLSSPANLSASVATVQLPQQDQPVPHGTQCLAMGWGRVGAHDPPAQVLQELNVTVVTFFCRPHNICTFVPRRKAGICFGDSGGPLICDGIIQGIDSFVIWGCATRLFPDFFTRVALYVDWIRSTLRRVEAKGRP

[4] = target: T4, Neutrophil elastase (Mus musculus) (UniProt Q3UP87); experiment: Induction of neutrophil elastase degradation in C57BL/6 mouse bone marrow cells assessed as residual activity at 10 uM incubated for 48 hrs by Western blot analysis relative to control; format: cell-based; conditions: Bone marrow cell
T4 sequence (whole entry): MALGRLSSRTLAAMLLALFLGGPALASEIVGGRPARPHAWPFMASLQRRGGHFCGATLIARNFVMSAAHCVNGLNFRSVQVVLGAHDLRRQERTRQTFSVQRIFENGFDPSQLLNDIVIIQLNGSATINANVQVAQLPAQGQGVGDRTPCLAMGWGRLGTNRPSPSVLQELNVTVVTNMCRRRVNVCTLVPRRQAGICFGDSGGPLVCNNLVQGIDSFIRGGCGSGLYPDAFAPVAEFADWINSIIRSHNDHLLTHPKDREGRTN

[5] = Half life in male Sprague-Dawley rat at 2 mg/kg, iv measured at 5 to 1440 mins by LC-MS/MS analysis; format: ADME, organism-based; conditions: in vivo, time 5-1440 min
[6] = Cmax in male Sprague-Dawley rat at 2 mg/kg, iv measured at 5 to 1440 mins by LC-MS/MS analysis; format: ADME, organism-based; conditions: in vivo, time 5-1440 min
[7] = Acute toxicity in ICR mouse assessed as spleen pathological change at 1500 mg/kg, po administered daily for 7 days by H and E staining based analysis; format: organism-based; conditions: in vivo, 168 h, time 7 day
[8] = Acute toxicity in ICR mouse assessed as kidney pathological change at 1500 mg/kg, po administered daily for 7 days by H and E staining based analysis; format: organism-based; conditions: in vivo, 168 h, time 7 day
[9] = target: Voltage-gated inwardly rectifying potassium channel KCNH2 (Homo sapiens, UniProt Q12809); experiment: Inhibition of hERG; format: toxicity
Voltage-gated inwardly rectifying potassium channel KCNH2, sequence (Q12809 whole entry): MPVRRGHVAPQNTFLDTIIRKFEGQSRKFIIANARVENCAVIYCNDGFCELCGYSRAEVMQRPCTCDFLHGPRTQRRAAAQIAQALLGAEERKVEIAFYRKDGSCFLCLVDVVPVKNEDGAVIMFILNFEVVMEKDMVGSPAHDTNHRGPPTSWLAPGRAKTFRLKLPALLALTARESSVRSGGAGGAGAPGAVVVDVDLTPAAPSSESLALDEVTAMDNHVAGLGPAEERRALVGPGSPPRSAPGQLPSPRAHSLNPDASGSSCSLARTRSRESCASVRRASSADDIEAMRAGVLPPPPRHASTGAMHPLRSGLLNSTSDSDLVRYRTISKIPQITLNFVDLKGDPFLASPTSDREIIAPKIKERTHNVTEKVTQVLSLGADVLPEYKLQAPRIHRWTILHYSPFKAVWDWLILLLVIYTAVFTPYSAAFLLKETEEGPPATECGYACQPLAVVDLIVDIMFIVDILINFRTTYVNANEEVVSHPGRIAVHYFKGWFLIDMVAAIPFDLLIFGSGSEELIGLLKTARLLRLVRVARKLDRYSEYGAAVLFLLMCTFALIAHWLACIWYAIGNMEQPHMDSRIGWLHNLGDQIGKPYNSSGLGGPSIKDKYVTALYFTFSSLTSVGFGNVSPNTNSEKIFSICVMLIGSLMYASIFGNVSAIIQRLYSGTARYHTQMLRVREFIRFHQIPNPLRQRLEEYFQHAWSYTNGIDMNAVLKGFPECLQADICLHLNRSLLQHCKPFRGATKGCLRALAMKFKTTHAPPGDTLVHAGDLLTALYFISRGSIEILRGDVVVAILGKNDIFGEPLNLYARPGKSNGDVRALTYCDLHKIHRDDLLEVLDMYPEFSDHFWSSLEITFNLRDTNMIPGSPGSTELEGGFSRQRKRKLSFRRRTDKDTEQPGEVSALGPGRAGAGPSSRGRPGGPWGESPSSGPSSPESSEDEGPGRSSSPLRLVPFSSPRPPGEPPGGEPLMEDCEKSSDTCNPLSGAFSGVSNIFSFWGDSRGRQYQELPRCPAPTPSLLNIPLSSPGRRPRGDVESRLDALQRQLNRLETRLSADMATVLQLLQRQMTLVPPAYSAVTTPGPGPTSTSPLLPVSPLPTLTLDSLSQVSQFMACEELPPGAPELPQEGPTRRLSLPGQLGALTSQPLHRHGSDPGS

Mus musculus [10] = experiment: Anti-inflammatory activity in DSS-induced ulcerative colitis male C57BL/6 mouse model assessed as reduction in neutrophil elastase level in serum at 60 mg/kg administered via gavage for 10 days relative to control; format: functional; parameters: scale not given: the % may be the effect or the level left; conditions: time 10 day
Mus musculus [11] = experiment: Anti-inflammatory activity in DSS-induced ulcerative colitis male C57BL/6 mouse model assessed as reduction in proteinase 3 level in serum at 60 mg/kg administered via gavage for 10 days relative to control; format: functional; parameters: scale not given: the % may be the effect or the level left
Mus musculus [12] = experiment: Anti-inflammatory activity in DSS-induced ulcerative colitis male C57BL/6 mouse model assessed as reduction in Cathepsin G level in serum at 60 mg/kg administered via gavage for 10 days relative to control; format: functional; parameters: scale not given: the % may be the effect or the level left; conditions: time 10 day
[13] = target: T4, Neutrophil elastase (Mus musculus); experiment: In vivo inhibition of neutrophil elastase in C57BL/6 mouse assessed as reduction in neutrophil elastase activity in bone marrow administered orally once daily for 6 days by fluorescence based microplate reader; format: functional, organism-based; conditions: dose 5-30 mg/kg, route po, time 6.0 day
[14] = target: T5, Myeloblastin (Mus musculus) (UniProt Q61096); experiment: In vivo inhibition of proteinase 3 in C57BL/6 mouse assessed as reduction in proteinase 3 activity in blood administered orally once daily for 6 days by fluorescence based microplate reader; format: functional, organism-based; conditions: dose 5-30 mg/kg, route po, time 6.0 day
T5 sequence (whole entry): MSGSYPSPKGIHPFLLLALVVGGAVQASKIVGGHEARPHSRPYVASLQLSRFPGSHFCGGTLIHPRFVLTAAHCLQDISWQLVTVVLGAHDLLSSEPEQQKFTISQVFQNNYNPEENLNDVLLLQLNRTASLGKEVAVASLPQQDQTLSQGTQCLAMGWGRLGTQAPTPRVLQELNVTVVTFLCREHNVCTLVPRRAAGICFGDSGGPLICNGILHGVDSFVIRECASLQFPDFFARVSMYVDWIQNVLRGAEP

[15] = target: T6, Cathepsin G (Mus musculus) (UniProt P28293); experiment: In vivo inhibition of Cathepsin G in C57BL/6 mouse assessed as reduction in cathepsin G activity in blood administered orally once daily for 6 days by fluorescence based microplate reader; format: functional, organism-based; conditions: dose 5-30 mg/kg, route po, time 6.0 day
T6 sequence (whole entry): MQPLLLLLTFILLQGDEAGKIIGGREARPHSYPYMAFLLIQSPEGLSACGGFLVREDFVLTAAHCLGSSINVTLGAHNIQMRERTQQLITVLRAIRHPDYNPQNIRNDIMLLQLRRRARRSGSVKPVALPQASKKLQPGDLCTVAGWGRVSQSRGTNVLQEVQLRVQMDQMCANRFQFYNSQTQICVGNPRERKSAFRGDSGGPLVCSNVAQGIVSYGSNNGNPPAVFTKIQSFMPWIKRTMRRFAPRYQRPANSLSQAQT

## O=C1Nc2c(cccc2-c2ccc(NC3CCOCC3)cc2)/C1=C/c1ccnc2ccccc12
[1]
  inhibition: 17.2%
[2]
  inhibition: 24.5%
[3]
  inhibition: 33.1%
[4]
  Activity: 6.65%
[5]
  t1/2: 2.26 h
[6]
  Cmax: 309 ng/mL
[7]
  Activity: Non-toxic
[8]
  Activity: Non-toxic
[9]
  pIC50: < 4.52
Mus musculus [10]
  Activity: 52%
Mus musculus [11]; time 10 day
  Activity: 54%
Mus musculus [11]; time 10.0 day
  Activity: Active
Mus musculus [12]
  Activity: 40%
[13]
  inhibition: Dose-dependent-effect
[14]
  inhibition: Dose-dependent-effect
[15]
  inhibition: Dose-dependent-effect
